According to patent US12121525B2, “Methods for treating GI syndrome and graft versus host disease” (Sloan Kettering Institute for Cancer Research, priority 2007, dated 2024):

Columns and labels:
[1] = tested on: splenic T cells; test: Activation-induced cell death (AICD) assay, T cell apoptosis; format: cell-based, mouse; settings: 500 nM; 16 hr
Source text: To define a role for target cell ASMase in AICD, asmase^+/+, asmase^−/− or MRL.1pr (FasR^−/−) T cells were stimulated for 24 hr with 10 microgam/ml ConA, washed, rested in medium containing 20 U/ml rIL-2 for 24 hr, and finally AICD was initiated by restimulation in medium containing 20 U/ml rIL-2 and increasing concentrations of plate bound anti-CD3 mAb for 24 hr. AICD induction by anti-CD3 mAb conferred ceramide-rich platform generation 4 hr following stimulation (FIG. 19D), evident in 26.4±1.6% of the population of asmase^+/+ T cells compared to 5.1±1.0% of asmase^−/− T cells (p<0.005). Confocal analysis identified colocalization of the sphingolipid GM1 (FIG. 19E) and Fas within ceramide-rich platforms in asmase^+/+ T cells.
To characterize the impact of platform generation on AICD, asmase^+/+ and asmase^−/− T cells were induced to undergo AICD and apoptosis was quantified 16 hr thereafter. Apoptosis in asmase^+/+ T cells was anti-CD3 mAb dose-dependent, reaching 32.9±5.2% apoptosis 16 hr post induction (FIG. 19F). […]
Harvested splenocytes were enriched for T lymphocytes by nylon wool passage, resulting in >90% purity based upon FITC-CD3 mAb staining by flow cytometry. […] Cells were subsequently fixed, stained with 25 μl of 24 μg/ml bis-benzimide trihydrochloride solution (Hoechst #33258; Sigma-Aldrich, Milwaukee Wisc.) and apoptosis was quantified by fluorescence microscopy, as above.

[2] = tested on: C57BL/6 splenocytes; test: Platform generation on target splenocytes coincubated with MLR-primed CTLs; settings: 500 nM
[3] = tested on: C57BL/6 splenocytes; test: MLR-primed CTL-induced splenocyte lysis (51Cr release); format: cell-based, mouse; settings: 500 nM
Experimental: To show the generic role of target cell ASMase in T cell-induced lysis, we used two standardized assays for T cell function; MLR-primed CTL-induced splenocyte lysis (FIG. 17) and in vitro activation-induced cell death (AICD) of T cells (FIG. 18). The role of target cell ASMase was assessed in an in vitro activated MLR, in which C57BL/6 splenocyte target cells of asmase^+/+ or asmase^−/− genotype were stimulated for 48 hrs with mitogen, washed and chromium labeled. These cells were then coincubated with effector Balb/c splenocytes activated for 5 days by culture with irradiated C57BL/6 splenocytes. Chromium release was quantified and the % lysis was calculated. […] Washed splenocytes cells were coincubated with increasing ratios of activated effector Balb/c T cells, and ^51Cr release was quantified 6 hour thereafter. […]
To evaluate a potential generic role for target cell ASMase in platform generation in T cell-induced lysis, we tested two standardized assays for T cell-mediated cytolysis, MLR-primed CTL-induced splenocyte lysis, and in vitro AICD of T cells. […] Furthermore, MLR-primed CTLs induced 43.2±6.5% asmase^+/+ splenocyte lysis at an effector:target ratio of 50:1 (FIG. 19B), attenuated to 7.3±2.5% lysis in asmase^−/− target cells, as quantified by ^51Cr-release assay. […]

[4] = tested on: splenic T cells; test: Platform generation in T cells after AICD induction; settings: 500 nM; not shown
[5] = tested on: C57BL/6 hepatocytes; format: cell-based; settings: not shown
Experimental: Whereas Fas-mediated apoptotic death receptor activation requires generation of ceramide-rich platforms in some cell systems, CTL-induced platform generation was assessed in asmase^+/+ and asmase^−/− hepatocytes in the ex vivo model of GvHD. Alloactivated T cells induced rapid generation of ceramide-rich platforms on the surface of the target hepatocytes 10 min following co-incubation (FIG. 16C). Platform generation increased within one minute, peaked at 10 min, and persisted for over 60 min (FIG. 16D). Fas, required for apoptosis in this system, concentrated within the ceramide-rich platform as determined by confocal microscopy.
Platforms were detected as previously described. […]; Sigma-Aldrich) for 45 min at 4° C., washed twice in PBS containing 0.1% Triton X-100 and mounted in fluorescent mounting medium (Dako, Carpenteria CA). Fluorescence was detected using an Axiovert S-100 Zeiss fluorescence microscope equipped with a SPOT digital camera. The percentage of cells containing platforms, i.e. those in which the fluorescence condenses onto less than 15% of the cell surface, was determined by counting 150-250 cells per point. Alternately, platforms were identified using a mouse monoclonal anti-ceramide antibody MID 15B4 IgM (1:50 dilution, Alexis Biochemicals), mouse monoclonal anti-Fas CH-11 IgM (1:500 dilution, Upstate Biotechnology) or polyclonal rabbit anti-ASMase antibody 1598 (1:100 dilution) and detected using Cy3-conjugated anti-mouse or anti-rabbit IgM (1:500 dilution, Roche Molecular Biochemicals), respectively. Rabbit polyclonal anti-CD46 (1:1000 dilution, Santa Cruz Biotechnology, Santa Cruz CA) was used as a negative control. In some studies, confocal images were obtained using a Leica TCS SPZ upright confocal microscope. Alternatively, 0.5×10^6hepatocytes were stimulated for the indicated times with CTLs and platform formation was assessed as described.

[6] = tested on: C57BL/6 hepatocytes; format: cell-based
Experimental: FIGS. 16A-16F. In vivo activated allogeneic CTLs require target hepatocyte ASMase for efficient killing ex vivo. Hepatocytes, isolated as described in Example 1, were coincubated with splenic T cells harvested from lethally-irradiated wild type C57BL/6 recipients 10-14 days following transplantation of LP BM+T cells. FIG. 16A: 2×10^6 GvH-activated CTLs were coincubated with 0.5×10^6 wild type C57BL/6 or B6.MRL.1pr (FasR^−/−) hepatocytes (left panel) in complete medium for 16 hr. […] Apoptosis was quantified following fixation by nuclear bisbenzimide staining. FIG. 16B: asmase^−/− hepatocytes are resistant to apoptosis induced by GvH-activated CTLs. CTL coincubation was performed as in FIG. 16A and apoptosis was quantified 16 hr thereafter. FIG. 16C: Representative images of asmase^+/+ (top left panel) and asmase^−/− (bottom left panel) C57BL/6 hepatocytes following 10 min coincubation in suspension with 2×10^6 GvH-activated T cells. Hepatocytes were fixed and stained with DAPI and Cy-3-labelled anti-ceramide mAb as described in Example 1. Arrows indicate ceramide-rich platform generation on the outer leaflet of the plasma membrane. […] FIG. 16D: Quantification of ceramide-rich platforms in asmase^+/+ and asmase^−/− hepatocytes following incubation with 2×10^6 GvH-activated CTLs. […] Apoptosis was quantified as in FIG. 16A. […] 0.5×10^6 wild type hepatocytes, preincubated with 50 μg/mL nystatin for 30 min and resuspended in RPMI containing 1% lipid-free FBS, were coincubated with 2×10^6 GvH-activated T cells and apoptosis was quantified as in FIG. 16A. […]
To assess whether ceramide-mediated raft clustering into membrane platforms is an essential component of cytolytic T cell (CTL)-induced apoptosis of hepatocytes, we blocked raft clustering pharmacologically and examined the impact on alloactivated CTL-induced hepatocyte apoptosis in vitro. […] Co-incubation induced increased hepatocyte apoptosis from a baseline of 4.7±0.7% to 33.8±1.9% by 16 hr, as detected by nuclear morphologic changes (FIG. 16A). […]

[7] = tested on: C57BL/6 mice; settings: intravenous, prior to TBI; cited from earlier work

CCCCCCCCCCCCCCCC(=O)N[C@@H](CO)[C@H](O)CCCCCCCCCCCCCCC [C16-dihydroceramide]
apoptosis of asmase−/− T cells stimulated to undergo AICD [1]: not
platform generation on asmase−/− target splenocytes [2]: ineffective
CTL-induced lysis of asmase−/− target splenocytes [3]: ineffective
platform generation in asmase−/− T cells stimulated to undergo AICD [4]: not
CTL-induced platform generation in asmase−/− hepatocytes [5]: failed to restore

C/C=C/[C@H]1O[C@@](O)([C@@H](C)[C@H](O)[C@H](C)[C@H]2OC(=O)/C(OC)=C/C(C)=C/[C@@H](C)[C@@H](O)[C@@H](CC)[C@@H](O)[C@H](C)C/C(C)=C/C=C/[C@@H]2OC)C[C@@H](O[C@H]2C[C@@H](O)[C@H](OC(N)=O)[C@@H](C)O2)[C@@H]1C [CMA, concanamycin A]
CTL-induced hepatocyte apoptosis ([6]; CTLs incubated 2 hr with 100 ng/ml CMA, wild type hepatocytes, 16 hr): no effect

C[C@@H]1[C@H](O)[C@@H](C)/C=C/C=C/CC/C=C/C=C/C=C/C=C/C(O[C@H]2O[C@H](C)[C@@H](O)[C@H](N)[C@@H]2O)CC2O[C@](O)(CC(O)C(O)CCC(O)CC(O)CC(O)CC(=O)O[C@H]1C)CC(O)C2C(=O)O (some centres unmarked) [nystatin]
2×10^6 alloactivated CTL-induced hepatocyte apoptosis ([6]; wild type hepatocytes preincubated with 50 μg/mL nystatin for 30 min): completely inhibited
CTL-induced ceramide-rich platform generation ([5]; wild type hepatocytes, nystatin 50 μg/mL 30 min): abrogated

bFGF: endothelial cell survival factor
crypt stem cell clonogens [7]: preserved
lethality from the GI syndrome [7]: protected
radiation-induced endothelial apoptosis of the intestinal microvascular system [7]: attenuated
